Laboratory results published in patent EP2698385A1, “Detection of synthetic cannabinoids” (priority 2012, dated 2014).

Tested on: antibodies raised to Immunogens I & II
Test: Competitive ELISA (Example 19), sensitivity and cross-reactivity of selected molecules, one result for both antibodies
Assay type: binding, sheep
Conditions: result in words
Procedure: Aqueous solutions of the immunogens prepared in examples 5 and 13 were formulated with Freund's Complete Adjuvant (FCA) to form emulsions consisting of 2mg/ml Immunogen I and 2mg/ml of Immunogen II in 50%(v/v) FCA. Three sheep were immunised with each emulsion (1° immunisations), 0.25ml being intramuscularly injected at four sites in the rump of each animal. Subsequent immunisations (boosts 2-8) contained 1mg/ml Immunogen I and 1mg/ml Immunogen II. All boosts were emulsified in 50%(v/v) Freund's Incomplete Adjuvant (FIA) and administered to the appropriate sheep in the same manner as the 1° immunisations, at monthly intervals. Blood sampling took place 7-14 days after each boost. Each sample was processed to produce antiserum, which was further purified by caprylic acid and ammonium sulphate precipitation to yield an immunoglobulin (Ig) fraction. The Ig fraction was evaluated by competitive ELISA microtiter plate assay, as described in example 19 below.
Example 19: Development of competitive ELISA for JWH synthetic cannabinoids and metabolites. • (a) The wells of an enhanced binding 96 well polystyrene microtiter plate were coated with the Ig fraction of the antiserum raised to Immunogen I (Hapten A-BTG - example 5) and diluted in 10mM Tris, pH8.5 (125µl/well). The appropriate antibody coating concentration was determined using standard ELISA checkerboard techniques. The plate was incubated for 2 hours at 37°C, washed 4 times over a 10-minute period with Tris buffered saline containing Tween 20 (TBST) and tapped dry. Standard solutions of JWH synthetic cannabinoids, metabolites and selected molecules were prepared in TBST and 50µl of each was added to the appropriate wells. 75µl of conjugate (Hapten A-HRP) diluted in Tris buffer containing EDTA, D-mannitol, sucrose, thimerosal and BSA, was added to each of the wells. The appropriate dilution of conjugate was also determined using standard ELISA checkerboard techniques. The plate was incubated at 25°C for 1 hour. The excess unbound conjugate was removed by washing 6 times over a 10-minute period with TBST and tapped dry. 125µl of tetramethylbenzedine (TMB) substrate solution was added to each well of the plate that was then incubated for 15-20 minutes in the dark at room temperature. The reaction was terminated by addition of 125µl of 0.2M sulphuric acid to each well. The absorbance was then measured at 450nm using a microtiter plate reader. Employing each series of standards, calibration curves were generated and these were used to determine the specificity of the immunoassay for the JWH synthetic cannabinoids, metabolites and selected molecules. The results of this study are presented in Tables 1 to 3, cross-reactivity being calculated according to the following formula: %CR = […] /IC50,CR X 100 [formula] Where %CR is the percentage cross-reactivity, IC50, YWH-018 is the concentration of JWH-018 that causes 50% displacement of signal and IC50, CR is the concentration of JWH synthetic cannabinoid/metabolite/selected molecule that causes 50% displacement of signal.
Table 2: Data generated from a competitive microtiter plate assay for JWH synthetic cannabinoids and metabolites, employing antiserum raised to Immunogen I (Hapten A-BTG) and conjugate (Hapten A-HRP) as detection reagent. • (c) The resulting competitive ELISA for synthetic cannabinoids and metabolites was further employed to analyse urine and serum samples from 20 patients (Table 3). • (d) The resulting competitive ELISA for synthetic cannabinoids and metabolites was also employed to test for the 5-fluoropentyl derivative of JWH-018, (1-(5-fluoropentyl)indol-3yl (1-naphthyl) methanone (Table 4).

CCCCCn1cc(C(=O)c2ccc(Cl)c3ccccc23)c2ccccc21 [JWH-398]
binding / cross-reaction with antibodies raised from Immunogens I and II: bind

O=C(O)CCCCn1cc(C(=O)c2cccc3ccccc23)c2ccccc21 [JWH-018 N-pentanoic acid metabolite]
binding / cross-reaction with antibodies raised from Immunogens I and II: bind
